Data from patent publication US9457040B2, “Effective treatment of esophageal adenocarcinoma using triciribine and related compounds” (University of South Florida, priority 2007, dated 2016).

Key:
[1] = cited from earlier work
[2] = system: advanced refractory malignancies; conditions: patients; i.v. infusion over fifteen minutes once every three weeks, 25 to 350 mg/m^2; cited from earlier work
advanced solid cancers = conditions: patients; i.v. days 1, 8, 15 and 22 of a 42 day cycle, 12 to 96 mg/m^2; cited from earlier work
[3] = system: metastatic colorectal adenocarcinoma; conditions: patients; i.v. over 15 minutes 165 or 250 mg/m^2 once a week in three week intervals; cited from earlier work
[4] = system: advanced squamous cell carcinoma of the cervix; conditions: cited from earlier work
PKCα = PKCα (Homo sapiens, UniProt P17252); assay: PKCα kinase activity / phospho-PKCα-T638 immunoblot; type: cell-based; conditions: anti-phospho-PKCα-T638 immunoblot

| Structure (SMILES) | solubility relative to the parent drug [1] | therapeutic response [2] | toxicity [2] | toxicity (advanced solid cancers) | clinical usefulness [3] | responses among twenty-one evaluable patients ([4]; 5 day continuous infusion of at least 35 mg/m^2 every six weeks) | activity (authors' conclusion) ([4]; metastatic or recurrent squamous cell cancer of the cervix, this dose and schedule) | kinase activity of PKCα (PKCα) |
| --- | --- | --- | --- | --- | --- | --- | --- | --- |
| CN1N=C(N)c2cn([C@@H]3O[C@H](COP(=O)(O)O)[C@@H](O)[C@H]3O)c3ncnc1c23 [TCN-P, triciribine phosphate] | more soluble than the parent drug | limited therapeutic responses | significant toxicity | unexpected clinical toxicity | lack of clinical usefulness | only two responses were observed | limited activity |  |
| Cn1cc(C2=C(c3cn(CCCSC(=N)N)c4ccccc34)C(=O)NC2=O)c2ccccc21 [Ro 31-8220] |  |  |  |  |  |  |  | inhibited |
